Active and inactive are the calls of the source. No cut-off for these calls is given here.
Legend:
HCT-116 = assay: Antiproliferative activity against human HCT116 cells incubated for 48 hrs by SRB assay; type: functional; settings: HCT-116, 48 h
[1] = Antiproliferative activity against human hepatocytes incubated for 48 hrs by SRB assay; type: cell-based, Hepatocyte
[2] = Antiproliferative activity against HUVEC incubated for 48 hrs by SRB assay; type: cell-based; settings: human, HUVEC cells
[3] = Antiproliferative activity against NHDF incubated for 48 hrs by SRB assay; type: cell-based; settings: human, NHDF cells
ASPC1 = assay: Antiproliferative activity against human AsPC1 cells incubated for 48 hrs by SRB assay; type: functional; settings: ASPC1, 48 h
MCF7 = assay: Antiproliferative activity against human MCF7 cells incubated for 48 hrs by SRB assay; type: functional; settings: MCF7, 48 h
SK-MEL-5 = assay: Antiproliferative activity against human SK-MEL-5 cells incubated for 48 hrs by SRB assay; type: functional; settings: SK-MEL-5, 48 h
KB = assay: Antiproliferative activity against human KB cells incubated for 48 hrs by SRB assay; type: functional
Ramos = assay: Antiproliferative activity against human Ramos cells incubated for 48 hrs by SRB assay; type: functional
[4] = Antiproliferative activity against human 33HJ-JA1 cells incubated for 48 hrs by SRB assay; type: functional
A549 = assay: Antiproliferative activity against human A549 cells incubated for 48 hrs by SRB assay; type: functional; settings: A549, 48 h
NCI-H460 = assay: Antiproliferative activity against human NCI-H460 cells incubated for 48 hrs by SRB assay; type: functional; settings: NCI-H460, 48 h
PC-6 = assay: Antiproliferative activity against human PC6 cells incubated for 48 hrs by SRB assay; type: functional; settings: PC-6, 48 h
OVCAR-4 = assay: Antiproliferative activity against human OVCAR4 cells incubated for 48 hrs by SRB assay; type: functional; settings: OVCAR-4, 48 h
PC-3 = assay: Antiproliferative activity against human PC3 cells incubated for 48 hrs by SRB assay; type: functional; settings: PC-3, 48 h
RPMI-8226 [5] = assay: Reduction of Itch protein expression in human RPMI8226 cells at 10 uM by Western blot; type: functional, cell-based
RPMI-8226 [6] = assay: Antitumor activity against human RPMI8226 cells xenografted in SCID nude mouse assessed as inhibition of tumor growth at 25 mg/kg, po dosed daily for 45 days; type: functional; settings: RPMI-8226, po, 1080 h, read-out: TGI
RPMI-8226 [7] = assay: Antitumor activity against human RPMI8226 cells xenografted in SCID nude mouse assessed as inhibition of tumor growth at 50 mg/kg, po dosed daily for 45 days; type: functional; settings: RPMI-8226, po, 1080 h, read-out: TGI
Mus musculus [8] = assay: Toxicity in human RPMI8226 cells xenografted SCID nude mouse assessed as effect on body weight at 25 mg/kg, po dosed daily for 45 days; type: organism-based; settings: in vivo, 1080 h
Mus musculus [9] = assay: Toxicity in human RPMI8226 cells xenografted SCID nude mouse assessed as effect on body weight at 50 mg/kg, po dosed daily for 45 days; type: organism-based; settings: in vivo, 1080 h
Homo sapiens [10] = species on record: Homo sapiens; assay: Inhibition of UBE1/UbcH3/SCFFbw7/Cyclin E1 (unknown origin) assessed as protein activity at […] by electrochemiluminescence based ubiquitin profiler panel assay; design: scale not given: the % may be the effect or the level left
Homo sapiens [11] = species on record: Homo sapiens; assay: Inhibition of UBE1/UbcH5a/SCFFbw7/Cyclin E1 (unknown origin) assessed as protein activity at […] by electrochemiluminescence based ubiquitin profiler panel assay; design: scale not given: the % may be the effect or the level left
Homo sapiens [12] = species on record: Homo sapiens; assay: Inhibition of UBE1/UbcH3/SCFbTrCP1/IkBa (unknown origin) assessed as protein activity at […] by electrochemiluminescence based ubiquitin profiler panel assay; design: scale not given: the % may be the effect or the level left
Homo sapiens [13] = species on record: Homo sapiens; assay: Inhibition of UBE1/UbcH4/SCFbTrCP1/IkBa (unknown origin) assessed as protein activity at […] by electrochemiluminescence based ubiquitin profiler panel assay; design: scale not given: the % may be the effect or the level left
Homo sapiens [14] = species on record: Homo sapiens; assay: Inhibition of UBE1/UbcH4/SCFbTrCP1/b-catenin (unknown origin) assessed as protein activity at […] by electrochemiluminescence based ubiquitin profiler panel assay; design: scale not given: the % may be the effect or the level left
Homo sapiens [15] = species on record: Homo sapiens; assay: Inhibition of UBE1/UbcH4/MDM2/CK1d/p53 (unknown origin) assessed as protein activity at […] by electrochemiluminescence based ubiquitin profiler panel assay; design: scale not given: the % may be the effect or the level left
Homo sapiens [16] = species on record: Homo sapiens; assay: Inhibition of UBE1/UbcH5c/MDM2/CK1d/p53 (unknown origin) assessed as protein activity at […] by electrochemiluminescence based ubiquitin profiler panel assay; design: scale not given: the % may be the effect or the level left
Homo sapiens [17] = species on record: Homo sapiens; assay: Inhibition of UBE1/UbcH4/MDM2/MDM2(Auto) (unknown origin) assessed as protein activity at […] by electrochemiluminescence based ubiquitin profiler panel assay; design: scale not given: the % may be the effect or the level left
Homo sapiens [18] = species on record: Homo sapiens; assay: Inhibition of UBE1/UbcH5c/MDM2/MDM2(Auto) (unknown origin) assessed as protein activity at […] by electrochemiluminescence based ubiquitin profiler panel assay; design: scale not given: the % may be the effect or the level left
Homo sapiens [19] = species on record: Homo sapiens; assay: Inhibition of UBE1/UbcH4/c-Cbl/Src (unknown origin) assessed as protein activity at […] by electrochemiluminescence based ubiquitin profiler panel assay; design: scale not given: the % may be the effect or the level left
Homo sapiens [20] = species on record: Homo sapiens; assay: Inhibition of UBE1/UbcH4/c-Cbl/Kit (unknown origin) assessed as protein activity at […] by electrochemiluminescence based ubiquitin profiler panel assay; design: scale not given: the % may be the effect or the level left
Homo sapiens [21] = species on record: Homo sapiens; assay: Inhibition of UBE1/UbcH4/VHL/HIF-1a (unknown origin) assessed as protein activity at […] by electrochemiluminescence based ubiquitin profiler panel assay; design: scale not given: the % may be the effect or the level left
Homo sapiens [22] = species on record: Homo sapiens; assay: Inhibition of UBE1/UbcH5a/VHL/HIF-1a (unknown origin) assessed as protein activity at […] by electrochemiluminescence based ubiquitin profiler panel assay; design: scale not given: the % may be the effect or the level left
Homo sapiens [23] = species on record: Homo sapiens; assay: Inhibition of UBE1/UbcH5c/VHL/HIF-1a (unknown origin) assessed as protein activity at […] by electrochemiluminescence based ubiquitin profiler panel assay; design: scale not given: the % may be the effect or the level left
Homo sapiens [24] = species on record: Homo sapiens; assay: Inhibition of UBE1/UbcH13/Uev1A/CHIP/CHIP(Auto) (unknown origin) assessed as protein activity at […] by electrochemiluminescence based ubiquitin profiler panel assay; design: scale not given: the % may be the effect or the level left
Homo sapiens [25] = species on record: Homo sapiens; assay: Inhibition of UBE1/UbcH5c/MuRF1/Cardiac Troponin (unknown origin) assessed as protein activity at […] by electrochemiluminescence based ubiquitin profiler panel assay; design: scale not given: the % may be the effect or the level left
Homo sapiens [26] = species on record: Homo sapiens; assay: Inhibition of UBE1/UbcH6/Parkin/p38/JTV-1 (unknown origin) assessed as protein activity at […] by electrochemiluminescence based ubiquitin profiler panel assay; design: scale not given: the % may be the effect or the level left
A-431 = assay: Antiproliferative activity against human A431 cells incubated for 48 hrs by SRB assay; type: functional; settings: A-431, 48 h
[27] = system: KATO III stomach cancer cell line; assay: Antiproliferative activity against human KATO III cells incubated for 48 hrs by SRB assay; type: functional
U-87 MG = assay: Antiproliferative activity against human U87MG cells incubated for 48 hrs by SRB assay; type: functional, U-87MG ATCC
Hep 3B2 = assay: Antiproliferative activity against human Hep3B cells incubated for 48 hrs by SRB assay; type: functional
A498 = assay: Antiproliferative activity against human A498 cells incubated for 48 hrs by SRB assay; type: functional; settings: A498, 48 h
ACHN = assay: Antiproliferative activity against human ACHN cells incubated for 48 hrs by SRB assay; type: functional
MOLT-4 = assay: Antiproliferative activity against human MOLT4 cells incubated for 48 hrs by SRB assay; type: functional; settings: MOLT-4, 48 h

## O=C(Nc1ccncc1)c1ccc(CNC2=C(Cl)C(=O)c3ccccc3C2=O)cc1
HCT-116
  GI50: 4.3 µM
[1]
  GI50 at 48 h: 30 µM
[2]
  GI50 at 48 h: 16 µM
[3]
  GI50 at 48 h: 6.3 µM
ASPC1
  GI50: 4.6 µM
MCF7
  GI50: 0.9 µM
SK-MEL-5
  GI50: 0.21 µM
KB
  GI50: 4 µM
Ramos
  GI50: 0.89 µM
[4]
  GI50: 1.9 µM
A549
  GI50: > 5 µM
NCI-H460
  GI50: 2.9 µM
PC-6
  GI50: 1.8 µM
OVCAR-4
  GI50: 1.4 µM
PC-3
  GI50: 2.5 µM
RPMI-8226 [5]
  Activity: Active
RPMI-8226 [6]
  inhibition in vivo at 25 mg/kg: 98.3%
RPMI-8226 [7]
  inhibition in vivo at 50 mg/kg: 100%
Mus musculus [8]
  Activity: Non-Toxic
Mus musculus [9]
  Activity: Non-Toxic
Homo sapiens [10]
  Activity: 104%
Homo sapiens [11]
  Activity: 100%
Homo sapiens [12]
  Activity: 102%
Homo sapiens [13]
  Activity: 91%
Homo sapiens [14]
  Activity: 68%
Homo sapiens [15]
  Activity: 71%
Homo sapiens [16]
  Activity: 75%
Homo sapiens [17]
  Activity: 92%
Homo sapiens [18]
  Activity: 105%
Homo sapiens [19]
  Activity: 89%
Homo sapiens [20]
  Activity: 86%
Homo sapiens [21]
  Activity: 96%
Homo sapiens [22]
  Activity: 95%
Homo sapiens [23]
  Activity: 100%
Homo sapiens [24]
  Activity: 65%
Homo sapiens [25]
  Activity: 92%
Homo sapiens [26]
  Activity: 79%
A-431
  GI50: 1.2 µM
[27]
  GI50: 2.4 µM
U-87 MG
  GI50: 2.5 µM
Hep 3B2
  GI50: 1.4 µM
A498
  GI50: 3.5 µM
ACHN
  GI50: 2.7 µM
MOLT-4
  GI50: 4 µM
